Data on 24 compounds can be found in patent publication US4940714A, “2-substituted carbonylimidazo[4,5-c]quinolines” (Shionogi & Co., Ltd., priority 1988, dated 1990).

Experiment [1] has as its system learning and memory. Conditions: M. Sarter et al., TINS 11, 13 (1988); cited from earlier work.
In experiment [2] the target is Benzodiazepine Receptor. Nature of the experiment: Test on Binding to Benzodiazepine Receptor (inhibition of specific binding of tritium-labeled diazepam). More on the design: species or system male Wistar rats (cerebral cortex). Conditions: 2 nM tritium-labeled diazepam, 0° C., 60 minutes, rat cerebral cortex receptor preparation. How it is done: Test on Binding to Benzodiazepine Receptor
This test was carried out modifying partially a method of Mohler & Okada, Science, 198, 849-851 (1977). Receptor preparation was provided from the cerebral cortex of male Wistar rats (11-13 weeks age). Inhibitory action of the test compound on the specific binding of tritium-labeled diazepam to the receptor was evaluated as follows: 2 nM tritium-labeled diazepam and an aqueous solution of the test compound in 5 or 6 different concentrations were incubated with the receptor preparation at 0° C. for 60 minutes. The 50% inhibitory concentration (IC50) was measured by the concentration-response curve. In addition, the inhibitory constant (Ki) of the test compound was calculated by dissociation constant (Kd) and concentration (L) of the tritium-labeled diazepam.

Experiment [3] deals with learning and memory. Particulars: M. Sarter et al., TINS 11, 13 (1988); cited from earlier work. This is another data set of the same source.
Experiment [4] concerns Pentylenetetrazole-Induced Convulsion. Nature of the experiment: Potentiation of Pentylenetetrazole-Induced Convulsion (inverse agonist activity). It counts as in vivo. Conditions: Mus musculus; intravenous injection; pentylenetetrazole 90 mg/kg subcutaneous; 2-hour observation; male mice; probit method; read-out: ED50 (dose required to produce tonic convulsion and death in 50% of the animals). How it is done: Potentiation of Pentylenetetrazole-Induced Convulsion
Inverse agonist activity was evaluated in this Experiment. Pentylenetetrazole was subscutaneously administered male mice (a group of 8-16 male mice was employed in each test) at a dose of 90 mg/kg immediately after intravenous injection of the test compound. The dose (ED50) required to produce tonic convulsion and death in 50% of the aminals during subsequent 2-hour observation period was calculated by the probit method.

Experiment [5] has the same test system. In words: Antagonism of Pentylenetetrazole-Induced Convulsion (agonistic activity). The format is in vivo. Particulars: Mus musculus; intravenous injection; pentylenetetrazole 125 mg/kg subcutaneous; 2-hour observation; male mice; probit method; read-out: ED50 (dose required to prevent tonic convulsion and death in 50% of the animals). How it is done: Anatagonism of Pentylenetetrazole-Induced Convulsion
Agonistic activity was evaluated in this Experiment. Pentylenetetrazole was subscutaneously administered male mice (a group of 8-16 male mice was employed in each test) at a dose of 125 mg/kg immediately after intravenous injection of the test compound. The dose (ED50) required to prevent tonic convulsion and death in 50% of the animals during subsequent 2-hour observation period was calculated by the probit method.

For the compound `COC(=O)c1cc2c(cn1)[nH]c1ccccc12` [methyl β-carbonline-3-carboxylate], the “performance in several animal models of learning and memory” value in experiment [1] was “enhances the performance”.
Consider `O=C(c1nc2cnc3ccccc3c2[nH]1)C1CC1` [Ic-1, 2-Cyclopropylcarbonyl-1H-imidazo[4,5-c]quinoline], for which, in experiment [2], the Ki (commonly the dissociation constant of the complex between target and ligand, obtained from inhibition or displacement) is 0.357 nM.
Consider `CN1C(=O)CN=C(c2ccccc2)c2cc(Cl)ccc21` [diazepam], for which the “performance (learning and memory) in humans” value in experiment [3] is on record as “impairs such performance”.
`CSCCC(=O)c1nc2cnc3ccccc3c2[nH]1` [Ic-31] yielded a Ki in experiment [2] of 1.5 nM.
`Cc1cc(C(=O)c2nc3cnc4ccccc4c3[nH]2)no1` [Ic-60] gave a Ki in experiment [2] of 0.373 nM. Moreover, the ED50 (commonly the dose that gives a 50% effect, or the effect in half of the subjects) in experiment [4] came to 0.71 mg/kg.
Take `O=C(c1ccc(Cl)cc1)c1nc2cnc3ccccc3c2[nH]1` [Ic-41]: in experiment [2], the Ki was 8.33 nM.
Same read-out and setting: then `O=C(c1cccnc1)c1nc2cnc3ccccc3c2[nH]1` [Ic-49], with 1.8 nM.
As to `C/C=C/C(=O)c1nc2cnc3ccccc3c2[nH]1` [Ic-27], the Ki in experiment [2] stood at 13.1 nM. The ED50 in experiment [5] came out at 2.47 mg/kg.
Turning to `O=C(c1ccccc1)c1nc2cnc3ccccc3c2[nH]1` [Id-2], the ED50 in experiment [5] turned out to be 1.06 mg/kg.
Take `CCCC(=O)c1nc2cnc3ccccc3c2[nH]1` [Ic-6]: the Ki in experiment [2] worked out at 0.432 nM. Moreover, the ED50 in experiment [4] was determined as 1 mg/kg.
With `O=C(c1nc2cnc3ccc(F)cc3c2[nH]1)C1CC1` [Ic-21], the affinity in experiment [2] corresponds to a Ki of 0.5 nM. This counts as sub-nanomolar.
Same read-out and setting: then `CCC(=O)c1nc2cnc3ccccc3c2[nH]1` [Ic-4], with 0.409 nM.
On the same count and under the same terms, the result for `CCC(C)C(=O)c1nc2cnc3ccccc3c2[nH]1` (stereo not shown) [Ic-18] reads 3.6 nM.
Turning to `CCOC(=O)c1nc2cnc3ccccc3c2[nH]1` [Ic-64, 2-Ethoxycarbonyl-1H-imidazo[4,5-c]quinoline], in experiment [4], the ED50 is 0.31 mg/kg.
`CCCCCCC(=O)c1nc2cnc3ccccc3c2[nH]1` [Ic-9] had a Ki in experiment [2] of 6.11 nM. Also, in experiment [5], the ED50 stood at 3.21 mg/kg.
`O=C(c1cccc(F)c1)c1nc2cnc3ccccc3c2[nH]1` [Ic-38]: the ED50 in experiment [5] stood at 1.12 mg/kg.
Still for that read-out and setting: the result for `O=C(c1nc2cnc3ccccc3c2[nH]1)c1ccc(Cl)s1` [Ic-36, 2-[(5-Chlorothiophen-2-yl)carbonyl]-1H-imidazo[4,5-c]quinoline] reads 0.46 mg/kg.
In experiment [2], `O=C(c1nc2cnc3ccccc3c2[nH]1)c1ccccc1F` [Ic-37] gave a Ki of 2.21 nM. That is a single-digit nanomolar value.
Consider `CCNC(=O)c1nc2cnc3ccccc3c2[nH]1` [Ic-67], for which, in experiment [4], the ED50 turned out to be 0.35 mg/kg.
On to `CC(C)C(=O)c1nc2cnc3ccccc3c2[nH]1` [Ic-14], for which the affinity in experiment [2] corresponds to a Ki of 1.24 nM. The ED50 in experiment [4] turned out to be 0.2 mg/kg.
As for `CSc1ccc(C(=O)c2nc3cnc4ccccc4c3[nH]2)cc1` [Ic-45], the Ki in experiment [2] is 3.2 nM. In addition, the ED50 in experiment [5] was determined as 0.88 mg/kg.
In turn, `COc1ccc2c(c1)ncc1nc(C(=O)C3CC3)[nH]c12` [Ic-22] displayed a Ki in experiment [2] of 1.9 nM. For the same compound, the ED50 in experiment [4] stood at 0.15 mg/kg.
Turning to `O=C(c1nc2cnc3ccccc3c2[nH]1)c1ccco1` [Ic-56], affinity in experiment [2] was put at a Ki of 1.07 nM.
`O=C(c1nc2cnc3ccccc3c2[nH]1)c1cccs1` [Ic-50] returned a Ki in experiment [2] of 0.819 nM.
